Molecular target: T1, Papain (Carica papaya, UniProt P00784)
T1 sequence (P00784 whole entry): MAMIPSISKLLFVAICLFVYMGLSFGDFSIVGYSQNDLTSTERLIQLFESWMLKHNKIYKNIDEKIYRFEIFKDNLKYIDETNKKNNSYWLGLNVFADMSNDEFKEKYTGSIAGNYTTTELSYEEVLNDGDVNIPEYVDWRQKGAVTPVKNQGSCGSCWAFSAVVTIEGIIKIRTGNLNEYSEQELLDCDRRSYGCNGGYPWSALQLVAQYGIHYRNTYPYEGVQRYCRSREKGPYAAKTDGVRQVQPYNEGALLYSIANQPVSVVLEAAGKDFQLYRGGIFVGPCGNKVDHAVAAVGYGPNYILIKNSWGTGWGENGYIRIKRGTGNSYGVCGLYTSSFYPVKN
Assay: Kinetic Assay
Experimental: To characterize the type and extent inhibition of papain by fukugetin, papain (0.04 nM) was incubated with four concentrations of fukugetin (1.5, 3, 6 and 12μM). For cruzain, enzyme concentration was 12 nM and inhibitor concentrations varied from 1 μM to 10 μM. Analysis of enzyme kinetic data was carried out using the Lineweaver-Burk plot30 in Grafit 5.0 software. Hydrolytic activity was measured […], mixing fukugetin and enzymes by addition growingconcentrations of Cbz-Phe-Arg-MCA (0.5-22 μM).

## O=C1c2c(O)cc(O)cc2OC(c2ccc(O)cc2)C1c1c(O)cc(O)c2c(=O)cc(-c3ccc(O)c(O)c3)oc12 (stereo unspecified) [Fukugetin]
  Ki: 13.4 µM

From BindingDB's records for doi:10.3109/14756366.2012.668539 (Federal University of São Paulo, 2013)
